According to PubChem BioAssay (NCI):
Several values for one entry are separate records, joined by “and”; a condition that tells them apart may be missing. Identical values can stand only once.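 Values below derive from 48-hour exposures of cells grown in 96-well plates, with endpoints linearly interpolated between the two concentrations bracketing the appropriate inhibition level. GI50 = concentration required for 50% inhibition of growth. TGI is the concentration that stops growth completely.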

Tests used:
Assay in all cases: growth of human tumour cells (NCI), 48 h
COLO 205 colon = test system: COLO 205 colon
NCI-H23 lung = test system: NCI-H23 lung
SK-OV-3 ovarian = test system: SK-OV-3 ovarian
OVCAR-3 ovarian = test system: OVCAR-3 ovarian
A498 renal = test system: A498 renal
SF-268 CNS = test system: SF-268 CNS
HL-60(TB) leukemia = test system: HL-60(TB) leukemia
IGROV1 ovarian = test system: IGROV1 ovarian
NCI-H226 lung = test system: NCI-H226 lung
UACC-257 melanoma = test system: UACC-257 melanoma
HCT-15 colon = test system: HCT-15 colon

Row | SMILES | TGI (COLO 205 colon) | TGI (NCI-H23 lung) | TGI (SK-OV-3 ovarian) | TGI (OVCAR-3 ovarian) | TGI (A498 renal) | TGI (SF-268 CNS) | TGI (HL-60(TB) leukemia) | TGI (IGROV1 ovarian) | TGI (NCI-H226 lung) | TGI (UACC-257 melanoma) | TGI (HCT-15 colon) | GI50 (COLO 205 colon) | GI50 (SK-OV-3 ovarian) | GI50 (A498 renal) | GI50 (SF-268 CNS) | GI50 (HL-60(TB) leukemia) | GI50 (IGROV1 ovarian) | GI50 (NCI-H226 lung) | GI50 (UACC-257 melanoma) | GI50 (HCT-15 colon)
1 | Cc1cccc(C(C)C)c1NC(=O)CC1Sc2ccccc2NC1=O (stereo not given) | > 100 µM | > 100 µM | > 100 µM | > 100 µM | > 100 µM | > 100 µM | > 100 µM | > 100 µM | > 100 µM | > 100 µM | > 100 µM |  |  |  |  |  |  |  |  | 
2 | O=C(CC(=O)c1ccccc1)CC(O)(c1ccccc1)c1ccccc1 | 24.6 µM | 18.8 µM | 76 µM | 17.3 µM | 25.1 µM | 24.6 µM | 6.54 µM |  |  | 29.7 µM | 23 µM |  |  |  |  |  |  |  |  | 
3 | COc1cc(/C=C/C(=O)O)ccc1C(=O)OCc1ccccc1 | > 100 µM | > 100 µM | > 100 µM | > 100 µM | > 100 µM | > 100 µM | > 100 µM | > 100 µM | > 100 µM | > 100 µM | > 100 µM |  |  |  |  |  |  |  |  | 
4 | CCOC(=O)c1csc(NC(=O)CN2CCN(C)CC2)n1 | > 100 µM | > 100 µM | > 100 µM | > 100 µM | > 100 µM |  | > 100 µM | > 100 µM | > 100 µM | > 100 µM | > 100 µM |  |  |  |  |  |  |  |  | 
5 | CCCC(O)C(NC(=O)CCl)C(=O)O (stereo not given) | > 100 µM | > 100 µM | > 100 µM | > 100 µM | > 100 µM | > 100 µM | > 100 µM | > 100 µM | > 100 µM | > 100 µM | > 100 µM |  |  |  |  |  |  |  |  | 
6 | CC(=O)Nc1ccc(-c2nc3ccccc3s2)cc1 | > 100 µM | > 100 µM | 59.5 µM |  | 38.4 µM | > 100 µM | > 100 µM | > 100 µM | > 100 µM | > 100 µM | > 100 µM |  |  |  |  |  |  |  |  | 
7 | CC12CCC3C(CCC4=CC(O)CCC43C=O)C1(O)CCC2c1ccc(=O)oc1 (stereo not given) | 0.0596 µM and 0.0909 µM | 0.0151 µM | 0.0404 µM and 0.0713 µM | 0.0153 µM | 0.0418 µM and 0.113 µM | 0.0154 µM |  | 0.0936 µM and 0.141 µM | 0.0831 µM and 0.21 µM |  | 0.107 µM and 0.0622 µM | 0.05 µM | 0.05 µM | 0.05 µM | 0.00153 µM | 0.05 µM | 0.05 µM | 0.0866 µM | 0.05 µM | 0.0125 µM
8 | COc1cc2c3c(c4cc(OC)c(OC)cc4c2cc1OC)C(=O)C1CCC(=O)N1C3 (stereo not given) | > 100 µM | > 100 µM | 61.1 µM | > 100 µM | > 100 µM | > 100 µM | > 100 µM | 88.5 µM |  | > 100 µM | > 100 µM |  |  |  |  |  |  |  |  | 
